Experiments:
[1] = molecular target: Insulin receptor-related protein (Homo sapiens) (UniProt P14616); assay: Inhibition of recombinant human N-terminal His6-tagged IRR (944 to 1266 residues) expressed in baculovirus infected Sf21 insect cells at 2 uM using MBP (13-104) as substrate relative to control
Homo sapiens [2] = organism: Homo sapiens; assay: Inhibition of CK1 (unknown origin) at 2 uM relative to control
[3] = molecular target: Serine/threonine-protein kinase N2 (Homo sapiens) (UniProt Q16513); assay: Inhibition of PRK2 (unknown origin) at 2 uM relative to control
[4] = molecular target: Tyrosine-protein kinase Fyn (Homo sapiens) (UniProt P06241); assay: Inhibition of recombinant human N-terminal His6-tagged full-length FYN expressed in baculovirus infected Sf21 insect cells at 2 uM using Src peptide as substrate relative to control
Sequence of Tyrosine-protein kinase Fyn (Homo sapiens) (P06241 2-537 limits assumed): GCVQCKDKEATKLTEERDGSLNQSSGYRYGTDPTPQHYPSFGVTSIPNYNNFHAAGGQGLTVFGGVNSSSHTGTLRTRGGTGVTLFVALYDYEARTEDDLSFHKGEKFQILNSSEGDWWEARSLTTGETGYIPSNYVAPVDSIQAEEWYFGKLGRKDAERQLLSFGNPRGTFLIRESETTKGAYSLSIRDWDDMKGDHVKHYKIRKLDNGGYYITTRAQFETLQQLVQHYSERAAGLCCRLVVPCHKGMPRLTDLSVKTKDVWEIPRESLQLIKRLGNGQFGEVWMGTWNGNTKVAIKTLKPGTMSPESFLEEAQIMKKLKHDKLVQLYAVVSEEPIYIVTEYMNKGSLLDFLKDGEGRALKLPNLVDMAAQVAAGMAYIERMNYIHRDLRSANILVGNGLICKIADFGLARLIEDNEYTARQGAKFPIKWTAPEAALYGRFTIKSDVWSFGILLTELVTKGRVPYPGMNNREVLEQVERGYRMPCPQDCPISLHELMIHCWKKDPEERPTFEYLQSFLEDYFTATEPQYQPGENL

[5] = Inhibition of GSK3 (unknown origin); design: species or system Homo sapiens
[6] = molecular target: Dual specificity mitogen-activated protein kinase kinase 6 (Homo sapiens) (UniProt P52564); assay: Inhibition of recombinant human N-terminal MBP-tagged MKK6 (4 to end residues) expressed in Escherichia coli at 2 uM using p38alpha/SAPK2a.as substrate relative to control
Sequence of Dual specificity mitogen-activated protein kinase kinase 6 (Homo sapiens) (P52564 whole entry, the tested form may be a part): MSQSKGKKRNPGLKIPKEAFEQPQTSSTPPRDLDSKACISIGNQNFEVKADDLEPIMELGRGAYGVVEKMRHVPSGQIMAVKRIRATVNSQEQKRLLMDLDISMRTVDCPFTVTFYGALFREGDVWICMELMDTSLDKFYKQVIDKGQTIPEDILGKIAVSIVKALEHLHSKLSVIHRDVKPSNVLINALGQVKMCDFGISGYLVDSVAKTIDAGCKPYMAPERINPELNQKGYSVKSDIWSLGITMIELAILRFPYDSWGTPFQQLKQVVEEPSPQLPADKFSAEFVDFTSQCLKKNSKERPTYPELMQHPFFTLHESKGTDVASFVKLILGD

Homo sapiens [7] = organism: Homo sapiens; assay: Selectivity ratio of IC50 for inhibition of recombinant human N-terminal GST/His-tagged PDE3A (669 to 1141 residues) expressed in baculovirus infected Sf9 insect cells to IC50 for inhibition of c-MET in human SNU-5 cells
[8] = molecular target: Calcium/calmodulin-dependent protein kinase type II subunit beta (Homo sapiens) (UniProt Q13554); assay: Inhibition of recombinant human N-terminal His6-tagged CAMK2beta (1 to 315 residues) expressed in baculovirus infected Sf21 insect cells at 2 uM using ZIPtide as substrate relative to control
[9] = molecular target: Tyrosine-protein kinase Lyn (Homo sapiens) (UniProt P07948); assay: Inhibition of recombinant human N-terminal His6-tagged full-length LYN expressed in Sf21 insect cells at 2 uM using Poly (Glu4-Tyr) (4:1) as substrate relative to control
[10] = molecular target: Receptor-type tyrosine-protein kinase FLT3 (Homo sapiens, UniProt P36888); assay: Inhibition of FLT3 (unknown origin)
[11] = molecular target: Serine/threonine-protein kinase Sgk1 (Homo sapiens) (UniProt O00141); assay: Inhibition of SGK (unknown origin) at 2 uM relative to control
[12] = molecular target: Ephrin type-B receptor 4 (Homo sapiens) (UniProt P54760); assay: Inhibition of recombinant human N-terminal GST-tagged EphB4 (561 to end residues) expressed in baculovirus infected Sf21 insect cells at 2 uM using poly (Glu,Tyr) (4:1) as substrate relative to control
[13] = molecular target: Dual specificity mitogen-activated protein kinase kinase 7 (Homo sapiens) (UniProt O14733); assay: Inhibition of recombinant human N-terminal GST-tagged MKK7beta1 (2 to end residues) expressed in Escherichia coli at 2 uM using JNK1alpha1/SAPK1c as substrate relative to control
[14] = molecular target: Vascular endothelial growth factor receptor 1 (Homo sapiens) (UniProt P17948); assay: Inhibition of recombinant human N-terminal GST-tagged FLT1 (783 to end residues) expressed in baculovirus infected Sf21 insect cells at 2 uM using KKKSPGEYVNIEFG as substrate relative to control
Sequence of Vascular endothelial growth factor receptor 1 (Homo sapiens) (P17948 whole entry): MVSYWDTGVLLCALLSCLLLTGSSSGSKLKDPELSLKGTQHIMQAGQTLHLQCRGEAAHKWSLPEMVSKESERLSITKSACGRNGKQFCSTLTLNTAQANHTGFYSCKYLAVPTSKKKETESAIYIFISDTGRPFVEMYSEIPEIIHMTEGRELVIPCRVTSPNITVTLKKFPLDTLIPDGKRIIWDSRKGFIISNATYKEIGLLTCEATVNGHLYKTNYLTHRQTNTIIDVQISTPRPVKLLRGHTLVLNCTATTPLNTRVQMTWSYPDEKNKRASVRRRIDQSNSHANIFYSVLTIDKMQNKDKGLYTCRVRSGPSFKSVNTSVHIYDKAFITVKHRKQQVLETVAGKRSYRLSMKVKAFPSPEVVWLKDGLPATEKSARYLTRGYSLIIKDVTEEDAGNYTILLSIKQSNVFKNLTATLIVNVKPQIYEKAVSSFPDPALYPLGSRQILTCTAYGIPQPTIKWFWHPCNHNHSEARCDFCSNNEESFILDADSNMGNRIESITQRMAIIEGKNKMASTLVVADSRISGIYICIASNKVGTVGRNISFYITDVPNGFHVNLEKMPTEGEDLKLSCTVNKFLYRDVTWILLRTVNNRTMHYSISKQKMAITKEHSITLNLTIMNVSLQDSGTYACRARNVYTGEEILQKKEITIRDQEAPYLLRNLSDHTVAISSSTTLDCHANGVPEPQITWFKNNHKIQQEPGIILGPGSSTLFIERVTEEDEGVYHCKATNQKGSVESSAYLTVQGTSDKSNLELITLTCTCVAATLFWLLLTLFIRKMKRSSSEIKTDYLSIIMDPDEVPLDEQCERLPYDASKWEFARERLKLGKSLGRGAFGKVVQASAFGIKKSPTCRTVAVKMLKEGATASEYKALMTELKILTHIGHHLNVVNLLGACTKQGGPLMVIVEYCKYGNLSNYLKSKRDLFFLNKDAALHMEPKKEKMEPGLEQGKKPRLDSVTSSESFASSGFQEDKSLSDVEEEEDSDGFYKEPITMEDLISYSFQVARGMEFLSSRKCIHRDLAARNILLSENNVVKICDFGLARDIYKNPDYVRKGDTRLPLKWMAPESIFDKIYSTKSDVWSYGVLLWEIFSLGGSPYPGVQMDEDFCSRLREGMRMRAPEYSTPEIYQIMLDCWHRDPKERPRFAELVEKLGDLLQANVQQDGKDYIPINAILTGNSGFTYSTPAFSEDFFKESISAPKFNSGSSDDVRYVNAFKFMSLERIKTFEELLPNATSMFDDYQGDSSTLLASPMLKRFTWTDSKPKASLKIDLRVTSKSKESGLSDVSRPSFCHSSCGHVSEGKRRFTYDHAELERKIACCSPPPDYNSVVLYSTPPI

[15] = molecular target: Tyrosine-protein kinase ZAP-70 (Homo sapiens) (UniProt P43403); assay: Inhibition of recombinant human full-length C-terminal His6-tagged ZAP70 expressed in Sf21 insect cells at 2 uM using poly (Glu4-Tyr) (4:1) as substrate relative to control
[16] = molecular target: Cyclin-dependent kinase 5/CDK5 activator 1 (Homo sapiens) (UniProt Q00535+Q15078); assay: Inhibition of recombinant N-terminal His6-tagged human full-length CDK5/N-terminal GST-tagged full-length p35 expressed in baculovirus infected Sf21 insect cells at 2 uM using Histone H1 as substrate relative to control
Sequence of Cyclin-dependent kinase 5/CDK5 activator 1 (Homo sapiens) (Q00535 whole entry): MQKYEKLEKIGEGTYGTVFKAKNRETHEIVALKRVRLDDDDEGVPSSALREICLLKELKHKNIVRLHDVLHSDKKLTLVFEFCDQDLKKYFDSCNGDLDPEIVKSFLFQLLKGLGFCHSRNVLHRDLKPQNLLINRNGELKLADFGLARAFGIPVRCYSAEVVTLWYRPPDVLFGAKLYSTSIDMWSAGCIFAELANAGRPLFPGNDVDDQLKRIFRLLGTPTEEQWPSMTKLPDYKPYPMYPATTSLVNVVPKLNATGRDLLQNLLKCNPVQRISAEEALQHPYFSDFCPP
Sequence of Cyclin-dependent kinase 5/CDK5 activator 1 (Homo sapiens) (Q15078 99-307 partner limits assumed): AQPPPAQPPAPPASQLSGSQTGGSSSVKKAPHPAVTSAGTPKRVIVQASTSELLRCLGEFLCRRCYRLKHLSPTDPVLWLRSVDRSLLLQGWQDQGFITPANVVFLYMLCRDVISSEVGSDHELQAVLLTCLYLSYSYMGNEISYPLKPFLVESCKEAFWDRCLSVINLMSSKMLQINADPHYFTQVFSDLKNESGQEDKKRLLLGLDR

[17] = molecular target: Epidermal growth factor receptor (Homo sapiens) (UniProt P00533); assay: Inhibition of recombinant human N-terminal GST-tagged EGFR (696 to end residues) expressed in baculovirus infected Sf21 insect cells at 2 uM using angiotensin II peptide as substrate relative to control
[18] = molecular target: Serine/threonine-protein kinase mTOR (Homo sapiens) (UniProt P42345); assay: Inhibition of recombinant human N-terminal FLAG-tagged mTOR (1362 to end residues) at 2 uM relative to control
[19] = system: RAF proto-oncogene serine/threonine-protein kinase (Homo sapiens), P04049 [Y340D,Y341D]; assay: Inhibition of recombinant human N-terminal GST-tagged c-RAF Y340D/Y341D mutant (306 to 648 residues) expressed in Sf9 insect cells at 2 uM using MEK1(K97R) as substrate relative to control
[20] = molecular target: T1, Hepatocyte growth factor receptor (Homo sapiens, UniProt P08581); assay: Inhibition of c-MET in human SNU-5 cells measured after 6 hrs by steady-glo luciferase reporter gene assay; format: cell-based
T1 sequence (P08581 whole entry, the tested form may be a part): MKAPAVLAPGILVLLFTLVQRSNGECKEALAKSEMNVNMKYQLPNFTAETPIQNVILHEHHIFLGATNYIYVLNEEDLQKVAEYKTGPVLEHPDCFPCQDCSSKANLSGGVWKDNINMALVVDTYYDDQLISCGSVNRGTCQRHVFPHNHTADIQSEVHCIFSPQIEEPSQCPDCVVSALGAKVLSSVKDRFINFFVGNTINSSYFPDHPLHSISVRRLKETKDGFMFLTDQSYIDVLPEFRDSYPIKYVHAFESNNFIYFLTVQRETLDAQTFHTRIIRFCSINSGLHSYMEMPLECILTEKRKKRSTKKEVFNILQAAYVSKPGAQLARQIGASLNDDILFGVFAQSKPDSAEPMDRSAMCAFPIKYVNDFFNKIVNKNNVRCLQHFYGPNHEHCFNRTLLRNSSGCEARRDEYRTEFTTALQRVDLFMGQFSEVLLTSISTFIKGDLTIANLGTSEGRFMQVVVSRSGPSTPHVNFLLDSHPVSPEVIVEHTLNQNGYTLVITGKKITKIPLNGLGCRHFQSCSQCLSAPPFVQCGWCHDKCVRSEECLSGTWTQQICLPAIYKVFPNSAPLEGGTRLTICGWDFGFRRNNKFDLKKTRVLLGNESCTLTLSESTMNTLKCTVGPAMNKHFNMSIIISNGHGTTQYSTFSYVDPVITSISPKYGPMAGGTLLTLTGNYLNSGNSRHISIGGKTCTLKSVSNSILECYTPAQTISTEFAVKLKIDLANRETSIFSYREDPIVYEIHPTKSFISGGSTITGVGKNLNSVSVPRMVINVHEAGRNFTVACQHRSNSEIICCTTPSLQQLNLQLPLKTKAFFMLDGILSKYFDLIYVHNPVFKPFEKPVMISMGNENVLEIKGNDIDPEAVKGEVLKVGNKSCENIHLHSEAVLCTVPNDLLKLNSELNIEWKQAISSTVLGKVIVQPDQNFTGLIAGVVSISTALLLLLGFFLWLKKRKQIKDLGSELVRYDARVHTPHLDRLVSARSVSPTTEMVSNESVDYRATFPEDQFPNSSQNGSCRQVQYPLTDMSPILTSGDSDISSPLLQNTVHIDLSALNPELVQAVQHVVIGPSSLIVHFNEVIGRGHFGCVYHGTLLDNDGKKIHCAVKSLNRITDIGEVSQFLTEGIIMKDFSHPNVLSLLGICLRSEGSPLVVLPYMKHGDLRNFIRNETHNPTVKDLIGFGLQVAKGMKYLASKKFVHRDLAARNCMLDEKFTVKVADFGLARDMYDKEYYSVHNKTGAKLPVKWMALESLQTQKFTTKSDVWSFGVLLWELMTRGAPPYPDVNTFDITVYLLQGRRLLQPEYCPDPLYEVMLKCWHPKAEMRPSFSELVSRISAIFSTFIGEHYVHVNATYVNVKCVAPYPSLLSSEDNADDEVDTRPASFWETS

[21] = molecular target: Rho-associated protein kinase 2 (Homo sapiens) (UniProt O75116); assay: Inhibition of recombinant human N-terminal GST-tagged ROCK2 (5 to 554 residues) expressed in baculovirus infected Spodoptera frugiperda insect cells at 2 uM using KRRRLASLR as substrate relative to control
[22] = molecular target: Proto-oncogene tyrosine-protein kinase Src (Homo sapiens, UniProt P12931); assay: Inhibition of SRC (unknown origin)
[23] = molecular target: T1, Hepatocyte growth factor receptor; assay: Inhibition of c-Met (unknown origin) using poly Glu-Tyr as substrate preincubated for 10 mins followed by ATP addition by phosphoenolpyruvate/pyruvate kinase/lactate dehydrogenase coupled radiometric assay
[24] = molecular target: Tyrosine-protein kinase receptor TYRO3 (Homo sapiens, UniProt Q06418); assay: Inhibition of SKY (unknown origin)
[25] = molecular target: Inhibitor of nuclear factor kappa-B kinase subunit alpha (Homo sapiens) (UniProt O15111); assay: Inhibition of IKKa (unknown origin) at 2 uM relative to control
Sequence of Inhibitor of nuclear factor kappa-B kinase subunit alpha (Homo sapiens) (O15111 whole entry, the tested form may be a part): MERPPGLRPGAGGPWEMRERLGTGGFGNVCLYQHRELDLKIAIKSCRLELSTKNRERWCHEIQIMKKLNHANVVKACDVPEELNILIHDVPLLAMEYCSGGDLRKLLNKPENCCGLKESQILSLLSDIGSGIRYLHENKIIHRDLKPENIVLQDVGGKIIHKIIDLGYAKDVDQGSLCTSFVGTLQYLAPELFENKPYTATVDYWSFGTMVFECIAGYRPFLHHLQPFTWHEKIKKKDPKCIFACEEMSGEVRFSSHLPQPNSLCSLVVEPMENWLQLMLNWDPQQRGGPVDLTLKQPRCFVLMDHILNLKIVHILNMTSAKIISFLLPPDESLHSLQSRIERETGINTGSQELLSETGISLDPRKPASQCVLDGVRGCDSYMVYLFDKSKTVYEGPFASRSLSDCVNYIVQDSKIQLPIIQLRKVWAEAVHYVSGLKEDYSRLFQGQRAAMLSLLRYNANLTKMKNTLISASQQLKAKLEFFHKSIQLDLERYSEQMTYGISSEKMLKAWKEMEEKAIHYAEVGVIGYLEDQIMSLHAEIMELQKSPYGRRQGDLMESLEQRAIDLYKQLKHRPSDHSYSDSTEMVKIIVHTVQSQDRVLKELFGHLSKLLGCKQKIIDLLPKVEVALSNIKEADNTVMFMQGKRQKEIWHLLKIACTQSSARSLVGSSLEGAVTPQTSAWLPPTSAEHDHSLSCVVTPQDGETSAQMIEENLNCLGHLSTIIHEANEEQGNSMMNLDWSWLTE

[26] = molecular target: cGMP-inhibited 3',5'-cyclic phosphodiesterase 3A (Homo sapiens, UniProt Q14432); assay: Inhibition of recombinant human N-terminal GST/His-tagged PDE3A (669 to 1141 residues) expressed in baculovirus infected Sf9 insect cells using iFL-cAMP as substrate preincubated for 15 mins followed by substrate addition and measured after 40 mins by fluorescence assay
[27] = molecular target: Mitogen-activated protein kinase 8 (Homo sapiens) (UniProt P45983); assay: Inhibition of recombinant human full-length N-terminal His-tagged JNK1alpha1 ([…]) expressed in Sf21 insect cells at 2 uM using ATF2 (19 to 96 residues) as substrate relative to control
[28] = molecular target: Dual specificity mitogen-activated protein kinase kinase 1 (Homo sapiens) (UniProt Q02750); assay: Inhibition of recombinant human N-terminal GST-tagged/C-terminal His6-tagged full-length MEK1 expressed in Escherichia coli at 2 uM using MBP as substrate relative to control
[29] = molecular target: Protein kinase C beta type (Homo sapiens) (UniProt P05771); assay: Inhibition of recombinant human N-terminal His6-tagged PKCbeta2 (2 to end residues) expressed in Sf21 insect cells at 2 uM using Histone H1 as substrate relative to control

In the case of `C[C@@H](c1ccc2ncccc2c1)c1nnc2sc(-c3cnn(C)c3)nn12`, the inhibition [1] is reported as < 50%, the inhibition (Homo sapiens [2]) is reported as < 50% and the inhibition [3] is reported as < 50%. For the same compound, the inhibition [4] was < 50%, the Ki [5] was > 4000 nM and the inhibition [6] was < 50%. For the same compound, the Ratio IC50 (Homo sapiens [7]) was 25, the inhibition [8] was < 50% and the inhibition [9] was < 50%. The Ki [10] was > 4000 nM, the inhibition [11] was < 50% and the inhibition [12] was < 50%. The inhibition [13] was < 50%, the inhibition [14] was < 50% and the inhibition [15] was < 50%. The inhibition [16] was < 50%, the inhibition [17] was < 50% and the inhibition [18] was < 50%. For the same compound, the inhibition [19] was < 50%, the IC50 [20] was 20 nM and the inhibition [21] was < 50%. The Ki [22] was > 4000 nM, the Ki [23] was 20 nM and the Ki [24] was > 4000 nM. The inhibition [25] was < 50%, the IC50 [26] was 500 nM and the inhibition [27] was < 50%. The inhibition [28] was < 50% and the inhibition [29] was < 50%.

Reference: ChEMBL document CHEMBL4706768, “Discovery of Potent, Selective Triazolothiadiazole-Containing c-Met Inhibitors” (ACS Med Chem Lett, 2021)
